Laboratory results reported in patent US5286729A, “Angiotensin II receptor blocking 2,3,6 substituted quinazolinones” (American Cyanamid Company, priority 1993, dated 1994).

Target: T1, Angiotensin II Receptor (Bos taurus, UniProt P25104)
T1 construct: The brownish tissue forming the adrenal cortex is scraped off and finely minced with scissors before homogenization; from tissue; host or cells: beef adrenal cortex, microsomal (100,000 x g) membranes; adrenals from a local slaughter house (Maxwell-Cohen)
T1 sequence (P25104 1-359): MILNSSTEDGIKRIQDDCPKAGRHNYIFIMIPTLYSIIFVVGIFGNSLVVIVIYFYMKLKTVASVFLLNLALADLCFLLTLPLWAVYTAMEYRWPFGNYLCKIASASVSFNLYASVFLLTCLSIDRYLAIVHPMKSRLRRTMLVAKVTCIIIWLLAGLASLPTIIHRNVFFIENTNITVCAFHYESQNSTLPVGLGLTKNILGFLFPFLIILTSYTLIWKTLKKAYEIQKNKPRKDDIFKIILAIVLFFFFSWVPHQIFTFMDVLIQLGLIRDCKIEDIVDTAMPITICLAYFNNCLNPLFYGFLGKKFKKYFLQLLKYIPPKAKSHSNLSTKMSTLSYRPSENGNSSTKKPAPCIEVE
Experiment: Receptor Binding Assay, binding of [125I](Sar1,Ile8)AngII to beef adrenal cortex membranes
Settings: radioligand; non-specific binding with 1.0 uM unlabeled (Sar1,Ile8)AngII
Text: Beef adrenals are obtained from a local slaughter house (Maxwell-Cohen). [^125 I](Sar^1,Ile^8)AngII, S.A. 2200 Ci/mmole, is purchased from Dupont (NEN®, Boston, Mass.).
Approximately sixteen (16) to twenty (20) beef adrenal glands are processed as follows: fresh adrenal glands received on crushed ice are cleaned of fatty tissues and the tough membranes encapsulating the glands are removed and discarded. The brownish tissue forming the adrenal cortex is scraped off and finely minced with scissors before homogenization. Care is taken to avoid contamination with medullary tissue during dissection. The scraped cortices are suspended in twenty volumes of an ice-cold buffer medium consisting of 10 mM Tris.HCl (pH 7.4 at 22° C.) and containing 1.0 mM EDTA and 0.2M sucrose. Unless otherwise indicated, all subsequent operations are done at 4° C. […] The homogenate is centrifuged first at low speed (3,000×g) for 10 min. […] The pelleted membrane is reconstituted in 50.0 mM Tris.HCl buffer containing 0.1 mM of phenylmethylsulfonyl fluoride (PMSF) to give approximately a protein concentration of 2.5 mg per ml of tissue suspension. The membrane preparation is finally aliquoted in 1.0 ml volumes and stored at -70° C. until use in the binding assays. […]

[^125 I](Sar^1, Ile^8) AngII [reference compound]
Specific binding: greater than 90%
